Results: patent publication US11535599B2, “Benzisoxazole derivative” (Sumitomo Pharma Co., Ltd., priority 2020, dated 2022)

Experiments:
[1] = test system: reserpine-induced Parkinson's disease model mouse; assay: Potentiating effect of levodopa-induced hyperactivity in reserpine-induced Parkinson's disease model mouse; format: in vivo; details: Examples 12.5 or 25 mg/kg oral; rasagiline 3 or 10 mg/kg; with levodopa 200 mg/kg i.p.
Protocol: Dopamine-depleted mice due to reserpine treatment are model mice of akinesia symptoms in Parkinson's disease, said symptoms are relieved with levodopa (L-DOPA). The effect of the present compounds for potentiating the levodopa's effect was tested.
In the present test, male Crl: CD1 (ICR) mice (CHARLES RIVER LABORATORIES JAPAN, INC.) were used. 20-24 hours before starting the movement measurement, reserpine (3 mg/kg) was intraperitoneally administered to the mouse. One hour before starting the movement measurement, the present compound (12-.5 mg/kg or 25 mg/kg of. Examples 1, 2, 3, 4, and 5) was orally administered to the mouse. Shortly before starting the movement measurement, levodopa (200 mg/kg) with benserazide whose amount was ¼ of levodopa in free form was intraperitoneally administered to the mouse. The movement measurement was carried out for 90 minutes, and each total movement was compared.

mouse elevated plus maze = assay: Anxiolytic-like action, mouse elevated plus maze; format: in vivo; details: Example 13 at 10 mg/kg or more oral; diazepam 3 mg/kg oral
Protocol: In Parkinson's disease, psychiatric symptom (e.g. depression, anxiety) is known as one of its non-motor symptoms. The anxiolytic-like action of the present invention was evaluated with mouse elevated plus maze. The present test is broadly used as a method for evaluating the anxiolytic-like action of agents.
In the present test, male Crl: CD1 (ICR) mice (CHARLES RIVER LABORATORIES JAPAN, INC.) were used. One hour before the test was started, the solvent, the compound of Example 13 (3 mg/kg, 10 mg/kg, 30 mg/kg, or 100 mg/kg), or diazepam (3 mg/kg) which is a positive control was orally administered to the mouse. The mouse was put into a center platform in which the illuminance was adjusted to 80-100 Lux level. The head of the mouse was set toward the closed arm, and then the test was started. The mouse was allowed to explore freely for 5 minutes. When ⅓ of the mouse's body entered the arm, the behavior was counted as arm entry. And, the time spent in the open arm was also measured with a stopwatch. The ratio of the count of the open arm entry per the count of the all arm entry, and the ratio of the time spent in the open arm per the total exploration time (5 minutes) were calculated. […] Thus, the ratio of the count of the open arm entry per the count of the all arm entry, and the ratio of the time spent in the open arm per the total exploration time tend to be small values. When these ratios in the drug administration group are higher than those of the solvent administration group, it can be judged that the drug has anxiolytic-like action.

[2] = test system: subthalamic nucleus neuron; assay: Effect for inhibiting neuronal firing in mouse brain slice (patch-clamp); format: cell-based; details: 500 μmol/L
Protocol: (§1) The action of the present compound for regulating the voluntary firing frequency in subthalamic nucleus neuron and cerebellar Purkinje cell was measured by patch-clamp method in mouse brain slice. […] As stimulus protocol, a current of +200 pA or +400 pA was added thereto for 400 milliseconds and the raised action potential was recorded. […] The stimulus-controlled and digitized action potential was recorded with Clampex software (Version 10.2) (all instruments are from Molecular Device Corporation, Union City, Calif., USA). […] In the measurement after adding the compound of Example 13, the action potential was recorded after the record solution containing the compound of Example 13 was perfused for more than 10 minutes. In the analyses, the percentage of the spike firing frequency (Hz) for the current stimulation after adding the compound of Example 13, per the spike firing frequency (Hz) for the current stimulation before adding the compound of Example 13, was calculated, which was defined as a change rate of spike firing frequency in each cell.

cerebellar Purkinje cell = assay: as above; format: cell-based; details: 500 μmol/L
Protocol: as §1

[3] = test system: unilateral lesion model of nigrostriatal dopamine neuron induced with 6-OHDA; assay: Anti-tremor effect in 6-OHDA unilateral lesion model; format: in vivo, rat; details: 3 mg/kg oral, counted 10 minutes one hour later
Source text: A unilateral lesion model of nigrostriatal dopamine neuron induced with 6-OHDA is broadly used for evaluating the drug efficacy for treating Parkinson's disease, as shown in Test 3. In addition, the present model is known to present with jaw tremor which corresponds to the tremor frequency in a patient of Parkinson's disease, thus which is also expected to be a tremor model in Parkinson's disease. With the present model, the effect of the present compound for inhibiting the tremor in Parkinson's disease was evaluated. According to the procedure described in Test 3, a unilateral lesion model of nigrostriatal dopamine neuron was prepared. The compound of Example 13 (3 mg/kg) was orally administered to the model rat. One hour later, the number of tremulous jaw movements was counted for 10 minutes.

`CC(c1noc2ccccc12)S(N)(=O)=O` (stereo not drawn) [Example 1, 1-(Benzo[d]isoxazol-3-yl)ethane-1-sulfonamide] was tested, and the “levodopa-induced hyperactivity (total movement, 90 minutes)” value [1] was “significantly-potentiating effect of levodopa-induced hyperactivity”.
`C[C@H](c1noc2ccccc12)S(N)(=O)=O` [Example 13, (1R)-1-(1,2-benzoxazol-3-yl)ethane-1-sulfonamide] was tested, and the “count of the open arm entry” value (mouse elevated plus maze) was “increase significantly”, the “time spent in the open arm” value (mouse elevated plus maze) was “increase significantly” and the “spike firing frequency in subthalamic nucleus neuron” value [2] was “significantly inhibited the spike firing frequency”. The “spike firing frequency in cerebellar Purkinje cell” value (cerebellar Purkinje cell) was “significantly inhibited the spike firing frequency” and the “number of tremulous jaw movements” value [3] was “significantly decreased the number of tremulous jaw movements per unit time”.
